Reference: patent publication US4103028A, “Complement inhibitors” (American Cyanamid Company, priority 1977, dated 1978)
Structures can show the parent of a compound that is named as a salt.

Key:
[1] = tested on: shunt pathway; assay: Test, Code 036 (C-Shunt inhibitor), lysis of fragile human erythrocytes in autologous serum, cobra venom factor; type: biochemical; settings: In vitro; well number of a two-fold serial dilution assay, higher well number indicates higher activity; NEG = negative
Text: (§1) This test measures the ability of activated […] in the presence of C4 and appropriate dilutions of the test compound. An active inhibitor protects C2 from C1 and C4; (ii) Test, Code 035 (C3-C9 inhibitor) -- This test determines the ability of the late components of human complement (C3-C9) to lyse EAC 142 in the presence of appropriate dilutions of the test compound. An active inhibitor protects EAC 142 from lysis by human C3-C9; (iii) Test, Code 036 (C-Shunt inhibitor) -- In this test human erythrocytes rendered fragile are lysed in autologous serum via the shunt pathway activated by cobra venom factor in the presence of appropriate dilutions of the test compound. Inhibition of the shunt pathway results in failure of lysis; (iv) Forssman Vasculitis Test -- Here, the well known complement dependent lesion, Forssman vascultitis, is produced in guinea pigs by intradermal injection of rabbit anti-Forssman antiserum. The lesion is measured in terms of diameter, edema and hemorrhage and the extent to which a combined index of these is inhibited by prior intraperitoneal injection of the test compound at 200 mg/kg is then reported, unless otherwise stated; (v) Forssman Shock Test -- Lethal shock is produced in guinea pigs by an i.v. injection of anti-Forssman antiserum and the harmonic mean death time of treated guinea pigs is compared with that of simultaneous controls; (vi) Complement Level Reduction Test -- In this test, the above dosed quinea pigs, or others, are bled for serum and the complement level is determined in undiluted serum by the capillary tube method of U.S. Pat. No. 3,876,376 and compared to undosed control guinea pigs; and (vii) Cap 50 Test -- Here, appropriate amounts of the test compound are added to a pool of guinea pig serum in vitro, after which the undiluted serum capillary tube assay referred to above is run. The concentration of compound inhibiting 50% is reported.

[2] = molecular target: T1, C1 (Homo sapiens, UniProt P09871); assay: Test, Code 026 (C1 inhibitor), serial dilution assay; type: biochemical; settings: In vitro; well number of a two-fold serial dilution assay, higher well number indicates higher activity; NEG = negative
T1 sequence (P09871 16-437 limits assumed): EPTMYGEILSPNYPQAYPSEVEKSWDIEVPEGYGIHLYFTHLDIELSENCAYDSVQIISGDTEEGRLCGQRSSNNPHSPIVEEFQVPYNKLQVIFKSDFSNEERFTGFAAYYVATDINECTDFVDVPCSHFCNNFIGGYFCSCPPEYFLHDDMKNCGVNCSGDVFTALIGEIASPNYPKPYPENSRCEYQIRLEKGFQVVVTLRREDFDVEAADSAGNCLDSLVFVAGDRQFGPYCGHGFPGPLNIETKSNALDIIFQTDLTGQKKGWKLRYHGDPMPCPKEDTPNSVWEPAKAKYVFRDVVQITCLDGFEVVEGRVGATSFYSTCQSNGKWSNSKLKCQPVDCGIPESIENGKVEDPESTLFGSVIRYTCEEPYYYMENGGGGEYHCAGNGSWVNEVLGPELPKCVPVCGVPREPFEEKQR
T1 sequence (P09871 438-688 limits assumed): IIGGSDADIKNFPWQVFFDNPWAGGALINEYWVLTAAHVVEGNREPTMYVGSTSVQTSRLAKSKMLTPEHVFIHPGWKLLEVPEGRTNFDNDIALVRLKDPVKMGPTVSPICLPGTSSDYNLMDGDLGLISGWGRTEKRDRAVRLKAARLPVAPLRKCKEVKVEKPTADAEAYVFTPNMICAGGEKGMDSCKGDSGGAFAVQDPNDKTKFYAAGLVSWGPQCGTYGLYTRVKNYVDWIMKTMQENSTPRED
Text: as §1

[3] = tested on: late components of human complement (C3-C9); assay: Test, Code 035 (C3-C9 inhibitor), lysis of EAC 142; type: biochemical; settings: In vitro; well number of a two-fold serial dilution assay, higher well number indicates higher activity; NEG = negative
Text: as §1

[4] = tested on: complement level in undiluted serum; assay: Complement Level Reduction Test; design: species or system guinea pig; settings: In vivo, dosed guinea pigs bled for serum; capillary tube method, compared to undosed control guinea pigs
Text: as §1

[5] = tested on: Forssman vasculitis in guinea pigs; assay: Forssman Vasculitis Test; design: species or system guinea pig; settings: In vivo, inhibition of combined index of lesion diameter, edema and hemorrhage, prior intraperitoneal injection at 200 mg/kg unless otherwise stated
Text: as §1

Structure (SMILES)	036 (activity in wells) [1]	026 (activity in wells) [2]	035 (activity in wells) [3]	% Reduction Complement [4]	Forssman [5]
O=C(Nc1cccc(C(=O)Nc2cc(S(=O)(=O)[O-])cc3cc(S(=O)(=O)[O-])cc(O)c23)c1)Nc1cccc(C(=O)Nc2cc(S(=O)(=O)[O-])cc3cc(S(=O)(=O)[O-])cc(O)c23)c1.[Na+].[Na+].[Na+].[Na+] [5,5'-[Ureylenebis(m-phenylenecarbonylimino)]bis[4-hydroxy-2,7-naphthalenedisulfonic acid] tetrasodium salt]	2	6	1		
Cc1ccc(N)cc1C(=O)Nc1cc(S(=O)(=O)O)cc2cc(S(=O)(=O)O)cc(O)c12 [4-(5-Amino-o-toluamido)-5-hydroxy-2,7-naphthalenedisulfonic acid, disodium salt]	NEG	2	NEG		
Cc1ccc(C(=O)Nc2cc(S(=O)(=O)O)cc3cc(S(=O)(=O)O)cc(O)c23)cc1[N+](=O)[O-] [4-Hydroxy-5-(3-nitro-p-toluamido)-2,7-naphthalenedisulfonic acid, disodium salt]	NEG	3	NEG		
O=C(Nc1ccc(S(=O)(=O)F)cc1)Nc1cccc(C(=O)Nc2cc(S(=O)(=O)[O-])cc3cc(S(=O)(=O)[O-])cc(O)c23)c1.[Na+].[Na+] [4-{m-{3-[p-(Fluorosulfonyl)phenyl]ureido}benzamido}-5-hydroxy-2,7-naphthalenedisulfonic acid, disodium salt]	NEG	4	NEG		
Cc1ccc(C(=O)Nc2cc(S(=O)(=O)O)cc3cc(S(=O)(=O)O)cc(O)c23)cc1N [4-(3-Amino-p-toluamido)-5-hydroxy-2,7-naphthalenedisulfonic acid, disodium salt]	NEG	5	NEG		
Cc1cc(C(=O)Nc2cc(S(=O)(=O)O)cc3cc(S(=O)(=O)O)cc(O)c23)ccc1N [4-(4-Amino-m-toluamido)-5-hydroxy-2,7-naphthalenedisulfonic acid, disodium salt]	NEG	5	NEG	+12%	17
Cc1cc(C(=O)Nc2cc(S(=O)(=O)O)cc3cc(S(=O)(=O)O)cc(O)c23)ccc1[N+](=O)[O-] [4-Hydroxy-5-(4-nitro-3-toluamido)-2,7-naphthalenedisulfonic acid, disodium salt]	NEG	2	NEG	-20%	48
O=C(Nc1cccc(C(=O)Nc2cc(S(=O)(=O)O)cc3cc(S(=O)(=O)O)cc(O)c23)c1)Nc1cccc(C(F)(F)F)c1 [4-Hydroxy-5-m-[3-(α,α,α-trifluoro-m-tolyl)ureido]benzamido-2,7-naphthalenedisulfonic acid, disodium salt]	NEG	1	NEG	-6%	5
Cc1ccc([N+](=O)[O-])cc1C(=O)Nc1cc(S(=O)(=O)O)cc2cc(S(=O)(=O)O)cc(O)c12 [4-Hydroxy-5-(5-nitro-o-toluamido)-2,7-naphthalenedisulfonic acid, disodium salt]	NEG	2	NEG	-17%	10
O=C(Nc1cccc(C(=O)Nc2cc3c(O)cc(S(=O)(=O)O)cc3cc2S(=O)(=O)O)c1)Nc1cccc(C(=O)Nc2cc3c(O)cc(S(=O)(=O)O)cc3cc2S(=O)(=O)O)c1 [3,3'-[Ureylenebis (m-phenylenecarbonylimino)]bis[5-hydroxy-2,7-naphthalenedisulfonic acid]tetrasodium salt]	2	5	2	-31%	35
Cc1ccc(NC(=O)Nc2cccc(C(=O)Nc3cc(S(=O)(=O)O)cc4cc(S(=O)(=O)O)cc(O)c34)c2)cc1[N+](=O)[O-] [4-Hydroxy-5-m-[3-(3-nitro-p-tolyl)ureido]benzamido-2,7-naphthalenedisulfonic acid, disodium salt]	NEG	NEG	NEG	+46%	15
